Columns and labels:
Experiment in all cases: fitness (endpoint OD595 vs no drug) (fraction); higher = more growth
[1] = system: S. pneumoniae D39V
Procedure, shortened: (§1)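 In 384-well plates at 37 °C, cultures began at OD595 0.01 in 30 µl, with 55 µl used for S. pneumoniae. OD595 readings every 30 min for 14 h were corrected by the first reading. Fitness divides the stationary-phase transition optical density by the robust mean of no-drug control wells. The result is capped at 1.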

[2] = system: B. subtilis 168
Procedure, shortened: as §1

[3] = system: S. aureus Newman; settings: one replicate
Procedure, shortened: as §1
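Further: OD595 on entry to stationary phase over no-drug wells; at most 1.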

Q: Which fitness ([1]; first compound 0.5 µg/mL, partner 0.325 µg/mL) does the source give for O=C(O)[C@H]1/C(=C/CO)O[C@@H]2CC(=O)N21 [Clavulanic acid] + CN(C)c1cc(NC(=O)CNC(C)(C)C)c(O)c2c1C[C@H]1C[C@H]3[C@H](N(C)C)C(O)=C(C(N)=O)C(=O)[C@@]3(O)C(O)=C1C2=O [Tigecycline] here?
A: The fitness was at least 1.

Q: What about the fitness ([1]; first compound 0.5 µg/mL, partner 0.65 µg/mL) of the same molecule?
A: Its fitness is 0.965.

Q: And the fitness ([1]; first compound 0.5 µg/mL, partner 1.3 µg/mL)?
A: The fitness was 0.931.

Q: What about the fitness ([1]; first compound 0.5 µg/mL, partner 2.6 µg/mL) of the same molecule?
A: Its fitness is 0.866.

Q: And the fitness ([1]; first compound 1 µg/mL, partner 0.325 µg/mL)?
A: Its fitness is 0.908.

Q: And the fitness ([1]; first compound 1 µg/mL, partner 0.65 µg/mL)?
A: The fitness was 0.889.

Q: What about the fitness ([1]; first compound 1 µg/mL, partner 1.3 µg/mL) of the same molecule?
A: Its fitness is 0.877.

Q: And the fitness ([1]; first compound 1 µg/mL, partner 2.6 µg/mL)?
A: The fitness was 0.814.

Q: And the fitness ([1]; first compound 2 µg/mL, partner 0.325 µg/mL)?
A: Its fitness is 0.717.

Q: What about the fitness ([1]; first compound 2 µg/mL, partner 0.65 µg/mL) of the same molecule?
A: Its fitness is 0.782.

Q: And the fitness ([1]; first compound 2 µg/mL, partner 1.3 µg/mL)?
A: Its fitness is 0.815.

Q: What about the fitness ([1]; first compound 2 µg/mL, partner 2.6 µg/mL) of the same molecule?
A: Its fitness is 0.755.

Q: What about the fitness ([2]; first compound 1.5 µg/mL, partner 0.039 µg/mL) of the same molecule?
A: Its fitness is 0.98.

Q: And the fitness ([2]; first compound 1.5 µg/mL, partner 0.078 µg/mL)?
A: The fitness was 0.919.

Q: And the fitness ([2]; first compound 1.5 µg/mL, partner 0.125 µg/mL, one replicate)?
A: Its fitness is 0.956.

Q: What about the fitness ([2]; first compound 1.5 µg/mL, partner 0.156 µg/mL) of the same molecule?
A: Its fitness is 0.884.

Q: What about the fitness ([2]; first compound 1.5 µg/mL, partner 0.25 µg/mL, one replicate) of the same molecule?
A: Its fitness is 0.863.

Q: What about the fitness ([2]; first compound 1.5 µg/mL, partner 0.5 µg/mL, one replicate) of the same molecule?
A: Its fitness is 0.866.

Q: And the fitness ([2]; first compound 3 µg/mL, partner 0.039 µg/mL)?
A: Its fitness is 0.888.

Q: What about the fitness ([2]; first compound 3 µg/mL, partner 0.078 µg/mL) of the same molecule?
A: The fitness was 0.899.

Q: What about the fitness ([2]; first compound 3 µg/mL, partner 0.125 µg/mL, one replicate) of the same molecule?
A: The fitness was 0.952.

Q: And the fitness ([2]; first compound 3 µg/mL, partner 0.156 µg/mL)?
A: Its fitness is 0.889.

Q: And the fitness ([2]; first compound 3 µg/mL, partner 0.25 µg/mL, one replicate)?
A: Its fitness is 0.928.

Q: And the fitness ([2]; first compound 3 µg/mL, partner 0.5 µg/mL, one replicate)?
A: The fitness was 0.865.

Q: What about the fitness ([2]; first compound 6 µg/mL, partner 0.039 µg/mL) of the same molecule?
A: The fitness was 0.82.

Q: And the fitness ([2]; first compound 6 µg/mL, partner 0.078 µg/mL)?
A: Its fitness is 0.796.

Q: What about the fitness ([2]; first compound 6 µg/mL, partner 0.125 µg/mL, one replicate) of the same molecule?
A: Its fitness is 0.814.

Q: And the fitness ([2]; first compound 6 µg/mL, partner 0.156 µg/mL)?
A: The fitness was 0.79.

Q: And the fitness ([2]; first compound 6 µg/mL, partner 0.25 µg/mL, one replicate)?
A: Its fitness is 0.821.

Q: What about the fitness ([2]; first compound 6 µg/mL, partner 0.5 µg/mL, one replicate) of the same molecule?
A: The fitness was 0.765.

Q: What about the fitness ([3]; first compound 0.03125 µg/mL, partner 0.039 µg/mL) of the same molecule?
A: The fitness was 0.952.

Q: And the fitness ([3]; first compound 0.03125 µg/mL, partner 0.078 µg/mL)?
A: Its fitness is 0.933.

Q: And the fitness ([3]; first compound 0.03125 µg/mL, partner 0.156 µg/mL)?
A: Its fitness is 0.96.

Q: What about the fitness ([3]; first compound 0.0625 µg/mL, partner 0.039 µg/mL) of the same molecule?
A: Its fitness is 0.987.

Q: What about the fitness ([3]; first compound 0.0625 µg/mL, partner 0.078 µg/mL) of the same molecule?
A: Its fitness is 1.

Q: What about the fitness ([3]; first compound 0.0625 µg/mL, partner 0.156 µg/mL) of the same molecule?
A: Its fitness is 0.971.

Q: And the fitness ([3]; first compound 0.125 µg/mL, partner 0.039 µg/mL)?
A: Its fitness is 0.919.

Q: And the fitness ([3]; first compound 0.125 µg/mL, partner 0.078 µg/mL)?
A: The fitness was 0.884.

Q: What about the fitness ([3]; first compound 0.125 µg/mL, partner 0.156 µg/mL) of the same molecule?
A: Its fitness is 0.898.

Q: Which fitness ([1]; first compound 0.5 µg/mL, partner 0.0125 µg/mL) does the source give for O=C(O)[C@H]1/C(=C/CO)O[C@@H]2CC(=O)N21 [Clavulanic acid] + CCC[C@@H]1C[C@@H](C(=O)N[C@@H]([C@H]2O[C@H](SC)[C@H](O)[C@@H](O)[C@H]2O)[C@H](C)Cl)N(C)C1 [Clindamycin] here?
A: The fitness was 0.779.

Q: And the fitness ([1]; first compound 0.5 µg/mL, partner 0.015 µg/mL)?
A: Its fitness is 0.789.

Q: And the fitness ([1]; first compound 0.5 µg/mL, partner 0.025 µg/mL)?
A: The fitness was 0.511.

Q: And the fitness ([1]; first compound 0.5 µg/mL, partner 0.03 µg/mL)?
A: The fitness was 0.516.

Q: What about the fitness ([1]; first compound 0.5 µg/mL, partner 0.05 µg/mL) of the same molecule?
A: Its fitness is 0.134.

Q: And the fitness ([1]; first compound 0.5 µg/mL, partner 0.06 µg/mL)?
A: Its fitness is 0.305.

Q: And the fitness ([1]; first compound 1 µg/mL, partner 0.0125 µg/mL)?
A: The fitness was 0.749.

Q: What about the fitness ([1]; first compound 1 µg/mL, partner 0.015 µg/mL) of the same molecule?
A: Its fitness is 0.78.

Q: What about the fitness ([1]; first compound 1 µg/mL, partner 0.025 µg/mL) of the same molecule?
A: Its fitness is 0.485.

Q: And the fitness ([1]; first compound 1 µg/mL, partner 0.03 µg/mL)?
A: Its fitness is 0.567.

Q: What about the fitness ([1]; first compound 1 µg/mL, partner 0.05 µg/mL) of the same molecule?
A: The fitness was 0.116.

Q: What about the fitness ([1]; first compound 1 µg/mL, partner 0.06 µg/mL) of the same molecule?
A: Its fitness is 0.417.

Q: What about the fitness ([1]; first compound 2 µg/mL, partner 0.0125 µg/mL) of the same molecule?
A: Its fitness is 0.683.

Q: What about the fitness ([1]; first compound 2 µg/mL, partner 0.015 µg/mL) of the same molecule?
A: Its fitness is 0.566.

Q: What about the fitness ([1]; first compound 2 µg/mL, partner 0.025 µg/mL) of the same molecule?
A: Its fitness is 0.407.

Q: What about the fitness ([1]; first compound 2 µg/mL, partner 0.03 µg/mL) of the same molecule?
A: The fitness was 0.399.

Q: What about the fitness ([1]; first compound 2 µg/mL, partner 0.05 µg/mL) of the same molecule?
A: Its fitness is 0.101.

Q: And the fitness ([1]; first compound 2 µg/mL, partner 0.06 µg/mL)?
A: The fitness was 0.245.

Q: And the fitness ([2]; first compound 1.5 µg/mL, partner 0.0039 µg/mL, one replicate)?
A: Its fitness is 0.957.

Q: What about the fitness ([2]; first compound 1.5 µg/mL, partner 0.0078 µg/mL, one replicate) of the same molecule?
A: The fitness was 0.842.

Q: What about the fitness ([2]; first compound 1.5 µg/mL, partner 0.0156 µg/mL, one replicate) of the same molecule?
A: The fitness was 0.836.

Q: And the fitness ([2]; first compound 1.5 µg/mL, partner 0.0625 µg/mL)?
A: Its fitness is 0.609.

Q: And the fitness ([2]; first compound 1.5 µg/mL, partner 0.125 µg/mL)?
A: The fitness was 0.322.

Q: And the fitness ([2]; first compound 1.5 µg/mL, partner 0.25 µg/mL)?
A: The fitness was 0.308.

Q: What about the fitness ([2]; first compound 3 µg/mL, partner 0.0039 µg/mL, one replicate) of the same molecule?
A: Its fitness is 0.974.

Q: What about the fitness ([2]; first compound 3 µg/mL, partner 0.0078 µg/mL, one replicate) of the same molecule?
A: The fitness was 0.826.

Q: What about the fitness ([2]; first compound 3 µg/mL, partner 0.0156 µg/mL, one replicate) of the same molecule?
A: The fitness was 0.763.

Q: And the fitness ([2]; first compound 3 µg/mL, partner 0.0625 µg/mL)?
A: Its fitness is 0.404.

Q: What about the fitness ([2]; first compound 3 µg/mL, partner 0.125 µg/mL) of the same molecule?
A: The fitness was 0.313.

Q: What about the fitness ([2]; first compound 3 µg/mL, partner 0.25 µg/mL) of the same molecule?
A: Its fitness is 0.26.

Q: What about the fitness ([2]; first compound 6 µg/mL, partner 0.0039 µg/mL, one replicate) of the same molecule?
A: Its fitness is 0.931.

Q: And the fitness ([2]; first compound 6 µg/mL, partner 0.0078 µg/mL, one replicate)?
A: Its fitness is 0.791.

Q: And the fitness ([2]; first compound 6 µg/mL, partner 0.0156 µg/mL, one replicate)?
A: The fitness was 0.739.

Q: What about the fitness ([2]; first compound 6 µg/mL, partner 0.0625 µg/mL) of the same molecule?
A: The fitness was 0.398.

Q: What about the fitness ([2]; first compound 6 µg/mL, partner 0.125 µg/mL) of the same molecule?
A: The fitness was 0.24.

Q: What about the fitness ([2]; first compound 6 µg/mL, partner 0.25 µg/mL) of the same molecule?
A: Its fitness is 0.217.

Q: And the fitness ([3]; first compound 0.03125 µg/mL, partner 0.0312 µg/mL)?
A: The fitness was 0.863.

Q: What about the fitness ([3]; first compound 0.03125 µg/mL, partner 0.0625 µg/mL) of the same molecule?
A: The fitness was 0.544.

Q: And the fitness ([3]; first compound 0.03125 µg/mL, partner 0.125 µg/mL)?
A: Its fitness is 0.38.

Q: And the fitness ([3]; first compound 0.0625 µg/mL, partner 0.0312 µg/mL)?
A: The fitness was 0.889.

Q: What about the fitness ([3]; first compound 0.0625 µg/mL, partner 0.0625 µg/mL) of the same molecule?
A: The fitness was 0.518.

Q: What about the fitness ([3]; first compound 0.0625 µg/mL, partner 0.125 µg/mL) of the same molecule?
A: The fitness was 0.375.

Q: What about the fitness ([3]; first compound 0.125 µg/mL, partner 0.0312 µg/mL) of the same molecule?
A: Its fitness is 0.785.

Q: What about the fitness ([3]; first compound 0.125 µg/mL, partner 0.0625 µg/mL) of the same molecule?
A: Its fitness is 0.402.

Q: And the fitness ([3]; first compound 0.125 µg/mL, partner 0.125 µg/mL)?
A: Its fitness is 0.282.
